Assays:
Format in all cases: cell-based, mouse
[1] = system: PPRE-driven luciferase activity; experiment: PPRE-luciferase assay in Ppara-null hippocampal neurons transduced with Ppara constructs
Protocol: Astrocytes plated at 60-70% confluence were transfected with tk-PPREx3-Luc, a PPRE-dependent luciferase reporter construct. After 24 h of transfection, cells were treated with different concentrations of HEX (FIG. 10A), OCT (FIG. 10B) and HMB (FIG. 10C) for 4 h followed by monitoring luciferase activity. Under similar experimental condition, MTT was performed to understand the effect of these ligands on cell viability (FIG. 10D, HEX; FIG. 10E, OCT; FIG. 10F, HMB). Results are mean±SD of three independent experiments. ^ap<0.001 vs. control. Ppara-null astrocytes were transduced with lentivirions containing empty vector (FIG. 10G), FL-Ppara (FIG. 10H), Y314D-Ppara (FIG. 10I), Y464D-Ppara (FIG. 10J), and Y314D/Y464D-Ppara (FIG. 10K) for 48 h followed by transfection with tk-PPREx3-Luc. After 24 h of transfection, cells were treated with different doses of HEX, OCT and HMB for 4 h followed by monitoring luciferase activity. PPRE luciferase activity was assayed in Ppara-null astrocytes transduced with lentivirions containing empty vector (FIG. 10L), FL-Ppara (FIG. 10M), Y314D-Ppara (FIG. 10N), Y464D-Ppara (FIG. 10O), and Y314D/Y464D-Ppara (FIG. 10P) after treatment with different doses of WY14643, fenofibrate, and clofibrate. PPRE luciferase activity was assayed in primary hippocampal neurons transduced with lentivirions containing empty vector (FIG. 10Q), FL-Ppara (FIG. 10R), Y314D-Ppara (FIG. 10S), Y464D-Ppara (FIG. 10T), and Y314D/Y464D-Ppara (FIG. 10U) after treatment with different doses of HEX, OCT and HMB. Results are mean±SD of three independent experiments. ^ap<0.001 vs. control.
Isolation of Mouse Hippocampal Neurons: Hippocampal neurons were isolated from fetuses (E18) of pregnant female Ppara-null and strain-matched WT littermate mice as described by us^6,13,35-36 with some modifications. Briefly, dissection and isolation procedures were performed in an ice-cold, sucrose buffer solution (sucrose 0.32 M, Tris 0.025 M; pH 7.4)^37. The skin and the skull were carefully removed from the brain by scissors followed by peeling off the meninges by a pair of fine tweezers. Next, a fine incision was made in the middle line around the circle of Willis and medial temporal lobe was opened up. Hippocampus was isolated as a thin slice of tissue located near the cortical edge of medial temporal lobe. Hippocampal tissues isolated from all fetal pups (n>10) were combined together and homogenized with 1 ml of trypsin for 5 minutes at 37° C. followed by neutralization of trypsin. The single cell suspension of hippocampal tissue was plated in the poly-D-lysine pre-coated 75 mm flask. Five min after plating, the supernatants were carefully removed and replaced with complete neurobasal media. The next day, 10 μM AraC was added to remove glial contamination in the neuronal culture. The pure cultures of hippocampal neurons were allowed to differentiate fully for 9-10 days before treatment^35,36,38.

[2] = system: Ppara-null hippocampal neurons; experiment: Dendritic spine density (phalloidin) in transduced Ppara-null hippocampal neurons; conditions: lenti-FL-Ppara
Protocol: (§1) Ppara-null hippocampal neurons were transduced with lentivirions containing GFP (vector), FL-Ppara, and Y464D-Ppara for 48 h followed by treatment with vehicle (DMSO) (FIG. 11A), OCT (FIG. 11B), HEX (FIG. 11C), HMB (FIG. 11D), and WY14643 (FIG. 11E) for 24 h. Then neurons were stained for phalloidin to measure spine density. FIG. 11F) A representative picture of dendrite with spines (Cyan color) used for counting area of spine heads. Area of spine heads (FIG. 11G) and number of spines (FIG. 11H) in 10 μm of dendrites. Results are mean±SEM of 5 neurons per group. ^ap<0.05 vs vector only; ^bp<0.05 vs FL-Ppara. AMPA-driven calcium influx was measured in OCT (red), HEX (green) and HMB (purple)-treated Ppara-null hippocampal neurons transduced with lentivirions containing FL-Ppara (FIG. 11I), Y314D-Ppara (FIG. 11J), Y464D-Ppara (FIG. 11K), and Y314D/Y464D-Ppara (FIG. 11L). All neurons were treated with 50 μM of NMDA receptor antagonist N20C to inhibit passive calcium flow through NMDA receptor. (FIG. 11M-P) Similarly NMDA-driven calcium influx was measured in the lentivius-infected Ppara-null hippocampal neurons in the presence of different endogenous ligands. In these cases, Naspm-HCl was treated to stop the passive flow of calcium currents through AMPA receptor. Results are mean of three independent experiments.
Dendritic spines are the crucial mediators of synaptic transmission among central neurons and often serve as a primary candidate for the long term morphological substrates of neuronal plasticity^12,13. Therefore, the effect of these ligands on the increase of spine density in cultured hippocampal neurons was studied. Briefly, mouse Ppara-null hippocampal neurons were transduced with lentivirus containing empty vector, FL-Ppara, or Y464D-Ppara for a week followed by the treatment with OCT, HEX, and HMB for four more days. After that, neurons were labelled with phalloidin to monitor the spine density. […] This observation was further validated by measuring the area of spine heads (FIG. 11F-G) and number of spines (FIG. 11H) in HEX, OCT, and HMB-treated Ppara-null neurons. HEX (FIG. 17G-H), OCT (FIG. 17I-J) and HMB (FIG. 17K-L) stimulated the expression of CREB in Ppara-null hippocampal neurons that were transduced with lentivirons containing the FL-Ppara gene.
Hippocampal regions were dissected from 18-day-old embryonic fetus as described elsewhere (PMID: 25007337), combined and plated in poly-D-lysine coated plate for another 2-3 weeks for branching. After that, these neurons were transduced with GFP-containing lentivirions for 2 d. Neurons were stained with Dylight-554-conjugated phalloidin (Cat #21834; Thermofisher) as per manufactures protocol and visualized in fluorescence microscope. […]

[3] = system: AMPA-driven calcium influx; experiment: AMPA-driven calcium influx in transduced Ppara-null hippocampal neurons
Protocol: as §1

PPRE-luciferase activity ([1]; lenti-Y314D/Y464D-Ppara) | PPRE-luciferase activity ([1]; lenti-Y464D-Ppara) | SMILES | density of spines [2] | AMPA-mediated calcium influx ([3]; lenti-FL-Ppara) | AMPA-mediated calcium influx ([3]; lenti-Y314D-Ppara) | AMPA-mediated calcium influx ([3]; lenti-Y314D/Y464D-Ppara) | AMPA-mediated calcium influx ([3]; lenti-Y464D-Ppara)
completely abrogated | completely abrogated | CCCCCCCCCCCCCCCC(N)=O [HEX, hexadecanamide] | stimulated | stimulated | partially restore | remained unable to increase | remained unable to increase
completely abrogated | completely abrogated | CCOC(=O)C(C)(C)C(C)O (stereo not drawn) [HMB] | stimulated | stimulated | partially restore | remained unable to increase | remained unable to increase
completely abrogated | completely abrogated | CCCCCCCCC=CCCCCCCCC(N)=O [OCT, 9-octadecenamide] | stimulated | stimulated | partially restore | remained unable to increase | remained unable to increase

— patent publication US10617664B2, “Brain derived PPARα ligands” (Rush University Medical Center, priority 2015, dated 2020)
